According to patent US7714135B2, “Tetrahydropyridothiophenes for the treatment of proliferative diseases such as cancer” (4SC AG, priority 2005, dated 2010):

Key:
[1] = system: RKO colon adenocarcinoma cells (RKOp27) arrested by the expression of ectopic p27Kip1; assay: Alamar Blue cell viability assay on RKOp27 cells arrested by Ponasterone A-induced p27Kip1 expression (cell cycle specific mode of action); format: cell-based; conditions: Homo sapiens, RKOp27 subclone induced with 10 μM Ponasterone A, 72 hours incubation, read-out: IC50 RKO p27 induced (arrested)
Method: To determine the cell cycle specific mode of action, subclones of RKO colon adenocarcinoma cells (RKOp27 or RKOp21 as described by Schmidt et al. in Oncogene 19, 2423-2429; 2000) are seeded into 96 well flat bottom plates at a density of 16000 cells per well in a volume of 50 μl per well in DMEM growth medium with 10% FCS containing 10 μM Ponasterone A. 24 hours after seeding the 50 μl each of the compound dilutions in DMEM medium are added into each well of the 96 Well plate. Each compound dilution is tested as quadruplicates. Wells containing untreated control cells are filled with 50 μl DMEM medium containing 1% DMSO. The cells are then incubated with the substances for 72 hours at 37° C. in a humidified atmosphere containing 5% carbon dioxide. To determine the viability of the cells, 10 μl of an Alamar Blue solution (Biosource) are added and the fluorescence was measured at an extinction of 544 nm and an emission of 590 nm. For the calculation of the cell viability the emission value from untreated cells is set as 100% viability and the emission rates of treated cells are set in relation to the values of untreated cells. Viabilities are expressed as % values. Viability is compared of proliferating cells grown in the absence of the inducer Ponasterone A, versus viability of cells arrested by the expression of ectopic p27Kip1 induced by Ponasterone A.

[2] = system: RKO (RKOp27) human colon adenocarcinoma cells; assay: Alamar Blue cell viability assay, anti-proliferative/cytotoxic activity on proliferating (uninduced) RKOp27 cells; format: cell-based; conditions: RKOp27 subclone without inducer, 72 hours incubation, read-out: IC50 RKO p27 uninduced (proliferating)
Method: The anti-proliferative/cytotoxic activity of the compounds described herein, can be tested on subclones of RKO (RKOp27) human colon adenocarcinoma cells (Schmidt et al., Oncogene 19, 2423-2429; 2000) using the Alamar Blue cell viability assay (described in O'Brien et al. Eur J Biochem 267, 5421-5426, 2000). The compounds are dissolved as 20 mM solutions in dimethylsulfoxide (DMSO) and subsequently diluted in semi-logarithmic steps. DMSO dilutions are further diluted 1:100 into Dulbecco's modified Eagle's medium (DMEM) containing 10% fetal calf serum to a final concentration twice as much as the final concentration in the test. RKO subclones are seeded into 96 well flat bottom plates at a density of 4000 cells per well in a volume of 50 μl per well. 24 hours after seeding the 50 μl each of the compound dilutions in DMEM medium are added into each well of the 96 Well plate. Each compound dilution is tested as quadruplicates. Wells containing untreated control cells are filled with 50 μl DMEM medium containing 1% DMSO. The cells are then incubated with the substances for 72 hours at 37° C. in a humidified atmosphere containing 5% carbon dioxide. To determine the viability of the cells, 10 μl of an Alamar Blue solution (Biosource) are added and the fluorescence is measured at an extinction of 544 nm and an emission of 590 nm. For the calculation of the cell viability the emission value from untreated cells is set as 100% viability and the emission rates of treated cells are set in relation to the values of untreated cells. Viabilities are expressed as % values.
The corresponding IC50 values of the compounds for anti-proliferative/cytotoxic activity are determined from the concentration-effect curves.
Representative IC50 values for anti-proliferation/cytotoxicity determined in the mentioned assay follow from the following table A, in which the numbers of the compound correspond to the numbers of the examples.

Row | IC50 [1] | Structure (SMILES) | IC50 [2]
1 | > 100000 nM | CCOC(=O)N1CCc2c(sc(NC(=O)CCc3ccc(Cl)cc3)c2C#N)C1 [Example 17, 2-[3-(4-Chloro-phenyl)-propanoylamino]-3-cyano-4,7-dihydro-5H-thieno[2,3-c]pyridine-6-carboxylic acid ethyl ester] | ≤ 300 nM
2 | > 100000 nM | CCOC(=O)N1CCc2c(sc(NC(=O)CCc3ccccc3F)c2C#N)C1 [Example 10, 3-Cyano-2-(3-(2-fluoro-phenyl)-propanoylamino)-4,7-dihydro-5H-thieno[2,3-c]pyridine-6-carboxylic acid ethyl ester] | ≤ 300 nM

The remaining lines, values behind:

Row | Structure (SMILES) | IC50 [1] | IC50 [2]
3 | N#Cc1c(NC(=O)CCc2ccccc2)sc2c1CCN(C(=O)OCc1cccnc1)C2 [Example 28, 3-Cyano-2-(3-phenyl-propanoylamino)-4,7-dihydro-5H-thieno[2,3-c]pyridine-6-carboxylic acid pyridin-3-ylmethyl ester] | > 100000 nM | ≤ 300 nM
4 | COCCOC(=O)N1CCc2c(sc(NC(=O)CCc3cccnc3)c2C#N)C1 [Example 37, 3-Cyano-2-(3-pyridin-3-yl-propanoylamino)-4,7-dihydro-5H-thieno[2,3-c]pyridine-6-carboxylic acid 2-methoxy-ethyl ester] | ≥ 40000 nM | 300 to 2000 nM
5 | N#Cc1c(NC(=O)CCc2ccccc2)sc2c1CCN(C(=O)OCc1ccccn1)C2 [Example 27, 3-Cyano-2-(3-phenyl-propanoylamino)-4,7-dihydro-5H-thieno[2,3-c]pyridine-6-carboxylic acid pyridin-2-ylmethyl ester] | > 100000 nM | ≤ 300 nM
6 | N#Cc1c(NC(=O)CCc2ccccn2)sc2c1CCN(C(=O)OCCc1cccnc1)C2 [Example 107, 3-Cyano-2-(3-pyridin-2-yl-propanoylamino)-4,7-dihydro-5H-thieno[2,3-c]pyridine-6-carboxylic acid 2-pyridin-3-yl-ethyl ester] | > 100000 nM | 300 to 2000 nM
7 | CCOC(=O)N1CCc2c(sc(NC(=O)CC(C)(C)c3ccccc3)c2C#N)C1 [Example 47, 3-Cyano-2-(3-methyl-3-phenyl-butanoylamino)-4,7-dihydro-5H-thieno[2,3-c]pyridine-6-carboxylic acid ethyl ester] | > 100000 nM | ≤ 300 nM
